Measured values taken from PubChem BioAssay (NCI).
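All cell lines were grown in 96-well plates and treated with compound for 48 hours. GI50: concentration for 50% inhibition of growth. TGI denotes the concentration required for complete inhibition of growth.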

How the values were obtained:
Assay in all cases: growth of human tumour cells (NCI), 48 h
[1] = system: EKVX NSCLC
[2] = system: A498 renal
[3] = system: SNB-75 CNS
[4] = system: SF-268 CNS
[5] = system: SN12C renal
[6] = system: SK-MEL-28 melanoma
[7] = system: OVCAR-3 ovarian
[8] = system: SW-620 colon
[9] = system: NCI-H226 lung
[10] = system: HL-60(TB) leukemia
[11] = system: HCT-116 colon
[12] = system: K-562 leukemia
[13] = system: T-47D breast
[14] = system: SF-295 CNS
[15] = system: DU-145 prostate
[16] = system: TK-10 renal
[17] = system: SK-MEL-2 melanoma
[18] = system: SF-539 CNS
[19] = system: HCC-2998 colon
[20] = system: HOP-62 NSCLC
[21] = system: ACHN renal
[22] = system: SK-MEL-5 melanoma
[23] = system: HCT-15 colon
[24] = system: COLO 205 colon
[25] = system: IGROV1 ovarian
[26] = system: MOLT-4 leukemia
[27] = system: U251 CNS
[28] = system: UACC-62 melanoma
[29] = system: HT29 colon
[30] = system: KM12 colon
[31] = system: SR leukemia
[32] = system: M14 melanoma
[33] = system: CCRF-CEM leukemia
[34] = system: SK-OV-3 ovarian
[35] = system: UO-31 renal
[36] = system: NCI-H460 lung
[37] = system: LOX IMVI melanoma
[38] = system: A549 NSCLC
[39] = system: HOP-92 NSCLC
[40] = system: MDA-MB-231 breast
[41] = system: PC-3 prostate
[42] = system: HS 578T breast
[43] = system: NCI-H522 lung
[44] = system: BT-549 breast
[45] = system: RPMI-8226 leukemia
[46] = system: OVCAR-4 ovarian
[47] = system: RXF 393 renal
[48] = system: OVCAR-5 ovarian
[49] = system: NCI/ADR-RES ovarian
[50] = system: NCI-H23 lung
[51] = system: CAKI-1 renal
[52] = system: MDA-MB-435
[53] = system: UACC-257 melanoma
[54] = system: 786-0 renal
[55] = system: OVCAR-8 ovarian
[56] = system: MCF7 breast
[57] = system: SNB-19 CNS

Compound: CC(=O)O[C@H]1C(=O)[C@@]2(C)[C@H]([C@H](OC(=O)c3ccccc3)[C@]3(O)C[C@H](OC(=O)[C@H](OC(=O)OC[C@@H]4COC(C)(C)O4)[C@@H](NC(=O)c4ccccc4)c4ccccc4)C(C)=C1C3(C)C)[C@]1(OC(C)=O)CO[C@@H]1C[C@@H]2O
- GI50 [1]: 190 nM
- TGI [1]: > 33300 nM
- GI50 [2]: 79.9 nM
- TGI [2]: 758 nM
- GI50 [3]: 4.11 nM
- TGI [3]: 137 nM
- GI50 [4]: 251 nM
- TGI [4]: > 33300 nM
- GI50 [5]: 60 nM
- TGI [5]: > 33300 nM
- GI50 [6]: > 33300 nM
- TGI [6]: > 33300 nM
- GI50 [7]: 18.3 nM
- GI50 [8]: 21.3 nM
- TGI [8]: > 33300 nM
- GI50 [9]: 506 nM
- TGI [9]: > 33300 nM
- GI50 [10]: 24.1 nM
- TGI [10]: > 33300 nM
- GI50 [11]: 11.2 nM
- TGI [11]: > 33300 nM
- GI50 [12]: 17.6 nM
- TGI [12]: > 33300 nM
- GI50 [13]: 63.1 nM
- TGI [13]: > 33300 nM
- GI50 [14]: 59.8 nM
- TGI [14]: 574 nM
- GI50 [15]: 42.4 nM
- TGI [15]: > 33300 nM
- GI50 [16]: 656 nM
- TGI [16]: > 33300 nM
- GI50 [17]: 175 nM
- TGI [17]: > 33300 nM
- GI50 [18]: 71.5 nM
- TGI [18]: 2210 nM
- GI50 [19]: 96.9 nM
- TGI [19]: > 33300 nM
- GI50 [20]: 119 nM
- TGI [20]: > 33300 nM
- GI50 [21]: 1040 nM
- TGI [21]: > 33300 nM
- GI50 [22]: 147 nM
- TGI [22]: > 33300 nM
- GI50 [23]: 552 nM
- TGI [23]: > 33300 nM
- GI50 [24]: 29.2 nM
- TGI [24]: > 33300 nM
- GI50 [25]: 62 nM
- TGI [25]: > 33300 nM
- GI50 [26]: 57.1 nM
- TGI [26]: > 33300 nM
- GI50 [27]: 40.9 nM
- TGI [27]: > 33300 nM
- GI50 [28]: 58.7 nM
- TGI [28]: > 33300 nM
- GI50 [29]: 10.4 nM
- TGI [29]: > 33300 nM
- GI50 [30]: 19.6 nM
- TGI [30]: > 33300 nM
- GI50 [31]: 31.2 nM
- TGI [31]: > 33300 nM
- GI50 [32]: 26.8 nM
- TGI [32]: 233 nM
- GI50 [33]: 40.2 nM
- TGI [33]: > 33300 nM
- GI50 [34]: 1020 nM
- TGI [34]: > 33300 nM
- GI50 [35]: 1790 nM
- TGI [35]: > 33300 nM
- GI50 [36]: 7.74 nM
- TGI [36]: > 33300 nM
- GI50 [37]: 18.8 nM
- TGI [37]: > 33300 nM
- GI50 [38]: 48.8 nM
- TGI [38]: > 33300 nM
- GI50 [39]: 53.2 nM
- TGI [39]: > 33300 nM
- GI50 [40]: 143 nM
- TGI [40]: > 7260 nM
- GI50 [41]: 45.1 nM
- TGI [41]: > 33300 nM
- GI50 [42]: 25.6 nM
- TGI [42]: 1160 nM
- GI50 [43]: 37.5 nM
- TGI [43]: > 33300 nM
- GI50 [44]: 120 nM
- TGI [44]: > 33300 nM
- GI50 [45]: 9.35 nM
- TGI [45]: > 33300 nM
- GI50 [46]: > 33300 nM
- TGI [46]: > 33300 nM
- GI50 [47]: 45.4 nM
- TGI [47]: 279 nM
- GI50 [48]: 60.3 nM
- TGI [48]: > 33300 nM
- GI50 [49]: > 33300 nM
- TGI [49]: > 33300 nM
- GI50 [50]: 72.6 nM
- TGI [50]: > 33300 nM
- GI50 [51]: 182 nM
- TGI [51]: > 33300 nM
- GI50 [52]: 4.81 nM
- TGI [52]: 23.7 nM
- GI50 [53]: > 7380 nM
- TGI [53]: > 33300 nM
- GI50 [54]: 327 nM
- TGI [54]: > 33300 nM
- GI50 [55]: 85.7 nM
- TGI [55]: > 33300 nM
- GI50 [56]: 9.71 nM
- TGI [56]: > 33300 nM
- GI50 [57]: 92.3 nM
- TGI [57]: > 33300 nM
